Structures are written as SMILES.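 Compound exposure: 48 hours, 5 concentrations, 96-well plates. At the GI50, growth is halved. At the TGI there is no net growth.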 Where only a bound is given, the exact number is not on record here.

Among the test systems are LOX IMVI melanoma; UACC-62 melanoma; NCI-H23 lung; KM12 colon; HCC-2998 colon; RPMI-8226 leukemia; SK-OV-3 ovarian; OVCAR-4 ovarian; M14 melanoma; EKVX NSCLC.
Common to all, as to experiment: growth of human tumour cells (NCI), 48 h

For `Clc1cccc(Cl)c1C1CSc2ccccc2N=C1c1ccccc1` (configuration not stated), the GI50 was 1.75 µM with LOX IMVI melanoma; 5.9 µM in the test with UACC-62 melanoma; 13.1 µM in the test with NCI-H23 lung; 2.15 µM in the test on KM12 colon; 4.74 µM in the test on HCC-2998 colon; 2.46 µM with RPMI-8226 leukemia. Also, the results for the GI50 in the test with SK-OV-3 ovarian, with OVCAR-4 ovarian and with M14 melanoma were 11.5 µM, 3.11 µM and 8.44 µM, respectively. Moreover, the TGI in the test with LOX IMVI melanoma was found to be 4.03 µM; in the test with UACC-62 melanoma, 19.6 µM; in the test with NCI-H23 lung, 31.4 µM; with KM12 colon, 4.69 µM; with HCC-2998 colon, 15.5 µM; in the test on RPMI-8226 leukemia, 7.1 µM. Further, the values for the TGI in the test on SK-OV-3 ovarian, in the test with OVCAR-4 ovarian and in the test on M14 melanoma were 24.4 µM, 16 µM and 23.1 µM, respectively.
In the case of `Cc1ccccc1-n1ncc(C(=O)c2ccccc2)c1N`, the GI50 in the test with LOX IMVI melanoma, in the test on UACC-62 melanoma, in the test with NCI-H23 lung, with KM12 colon, with HCC-2998 colon and in the test on RPMI-8226 leukemia was > 25 µM in each case. Further, the GI50 in the test on SK-OV-3 ovarian, in the test on OVCAR-4 ovarian and with M14 melanoma was > 25 µM in each case. Further, the TGI with LOX IMVI melanoma, with UACC-62 melanoma, in the test with NCI-H23 lung, with KM12 colon, in the test on HCC-2998 colon and with RPMI-8226 leukemia was > 25 µM each time. For the same compound, the TGI in the test with SK-OV-3 ovarian, with OVCAR-4 ovarian and with M14 melanoma was > 25 µM throughout.
`O=C1c2nsnc2C(=O)c2c(F)c(F)c(F)c(F)c21`: the GI50 with LOX IMVI melanoma is 0.494 µM; in the test on UACC-62 melanoma, 1.2 µM; in the test on KM12 colon it was 1.4 µM; in the test on HCC-2998 colon it was 1.56 µM; in the test with RPMI-8226 leukemia, 0.374 µM; in the test with SK-OV-3 ovarian it was 2.04 µM. In addition, in the test on M14 melanoma, the GI50 is 0.249 µM. Also, the TGI with LOX IMVI melanoma worked out at 1.83 µM; in the test with UACC-62 melanoma it was 2.5 µM; in the test on KM12 colon, 3.29 µM; in the test with HCC-2998 colon, 3.14 µM; in the test on RPMI-8226 leukemia, 1.63 µM; in the test on SK-OV-3 ovarian, 3.7 µM. For the same compound, the TGI with M14 melanoma is 0.629 µM.
As to `COC(=O)C(Cc1cc(OC)c(OC)c(OC)c1)c1ccc(OC)cc1` (configuration not stated), the TGI with LOX IMVI melanoma, in the test with EKVX NSCLC, in the test on UACC-62 melanoma, in the test on KM12 colon, in the test on RPMI-8226 leukemia and with OVCAR-4 ovarian was > 100 µM in each case. The TGI with M14 melanoma is > 100 µM.
Take `COc1ccc2c(c1)[n+](=O)c(C(=O)c1ccco1)c(C(F)(F)F)n2[O-]`: the GI50 in the test on LOX IMVI melanoma was 1.19 µM; with EKVX NSCLC, 3.47 µM; with UACC-62 melanoma, 1.75 µM; in the test with NCI-H23 lung, 2.02 µM; in the test on KM12 colon, 4.48 µM; in the test with RPMI-8226 leukemia it was 1.62 µM. For the same compound, the values for the GI50 in the test with SK-OV-3 ovarian and with M14 melanoma were 3.15 µM and 2 µM, respectively. Besides, the TGI in the test with LOX IMVI melanoma turned out to be 3.59 µM; in the test on EKVX NSCLC, 9.81 µM; in the test on UACC-62 melanoma, 4.91 µM; in the test with NCI-H23 lung it was 5.05 µM; in the test with KM12 colon it was 32.6 µM; in the test with RPMI-8226 leukemia, 22.1 µM. For the same compound, the TGI stood at 25.9 µM in the test with SK-OV-3 ovarian and 6.72 µM with M14 melanoma.
Take `Cl.Fc1c[c-]c(-c2ccccn2)c(F)c1.[Pt].c1ccc(P(c2ccccc2)C([PH+](c2ccccc2)c2ccccc2)[PH+](c2ccccc2)c2ccccc2)cc1`: the GI50 was 3.35 µM in the test with LOX IMVI melanoma; 3.1 µM with EKVX NSCLC; 3.03 µM with UACC-62 melanoma; 3.06 µM in the test on NCI-H23 lung; 3.55 µM in the test on KM12 colon; 4.43 µM with HCC-2998 colon. The values for the GI50 in the test with RPMI-8226 leukemia and in the test with M14 melanoma were 1.68 µM and 3.13 µM, respectively. The TGI was 13.5 µM in the test on LOX IMVI melanoma; > 100 µM with EKVX NSCLC; 18 µM with UACC-62 melanoma; 61.1 µM in the test on NCI-H23 lung; 14.7 µM with KM12 colon; 29.6 µM in the test on HCC-2998 colon. The TGI came out at 5.51 µM in the test with RPMI-8226 leukemia and 53 µM in the test on M14 melanoma.
As for `Nc1nc2c(s1)CCc1c-2c(Br)n(Cc2ccccc2)c1Br`, the GI50 with LOX IMVI melanoma is 3.98 µM; in the test on UACC-62 melanoma, 10.4 µM; in the test on NCI-H23 lung it was 13.8 µM; in the test with KM12 colon, 14 µM; with HCC-2998 colon, 18 µM; with SK-OV-3 ovarian, 23.6 µM. Also, in the test on M14 melanoma, the GI50 is 14.5 µM. Also, the TGI with LOX IMVI melanoma amounted to 19.7 µM; in the test with UACC-62 melanoma, 24.7 µM; in the test with NCI-H23 lung it was 40.8 µM; in the test with KM12 colon it was 33.3 µM; with HCC-2998 colon, 33.7 µM; with SK-OV-3 ovarian, 53.7 µM. In addition, the TGI in the test on M14 melanoma stood at 30.2 µM.
Consider `CC1COc2c(N3CCN(C)CC3)c(F)cc3c(=O)c(C(=O)O)cn1c23` (configuration not stated), for which the GI50 in the test on LOX IMVI melanoma, with EKVX NSCLC, in the test with UACC-62 melanoma, in the test with NCI-H23 lung, in the test on KM12 colon and with RPMI-8226 leukemia was > 100 µM throughout. Besides, the GI50 in the test on SK-OV-3 ovarian, in the test on OVCAR-4 ovarian and in the test with M14 melanoma was > 100 µM throughout. The TGI with LOX IMVI melanoma, in the test on EKVX NSCLC, in the test on UACC-62 melanoma, with NCI-H23 lung, with KM12 colon and with RPMI-8226 leukemia was > 100 µM throughout. The TGI in the test on SK-OV-3 ovarian, with OVCAR-4 ovarian and in the test on M14 melanoma was > 100 µM each time.
With `O=C1NC(=O)C(=C/C=C/c2ccccc2)C(=O)N1`, the GI50 with LOX IMVI melanoma is 1.55 µM; in the test on UACC-62 melanoma it was 1.88 µM; in the test on NCI-H23 lung, 2.16 µM; in the test with KM12 colon it was 1.74 µM; with HCC-2998 colon it was 2.2 µM; in the test on RPMI-8226 leukemia, 3.59 µM. For the same compound, the figures for the GI50 with SK-OV-3 ovarian, with OVCAR-4 ovarian and in the test on M14 melanoma were 16.5 µM, 5.37 µM and 2.04 µM, respectively. The TGI was found to be 3.3 µM in the test with LOX IMVI melanoma; 4.5 µM with UACC-62 melanoma; 5.29 µM in the test with NCI-H23 lung; 3.26 µM in the test on KM12 colon; 4.1 µM in the test with HCC-2998 colon; 10.2 µM in the test with RPMI-8226 leukemia. Moreover, the figures for the TGI with SK-OV-3 ovarian, with OVCAR-4 ovarian and in the test with M14 melanoma were 30.5 µM, 17.2 µM and 4.73 µM, respectively.
`CCOC(=O)C1C2CCC(C2)C1(CCl)C(=O)OCC` (configuration not stated): the TGI with LOX IMVI melanoma, in the test with UACC-62 melanoma, with NCI-H23 lung, in the test on HCC-2998 colon, with RPMI-8226 leukemia and in the test on SK-OV-3 ovarian was > 100 µM throughout. Moreover, the TGI with OVCAR-4 ovarian and in the test with M14 melanoma was > 100 µM throughout.
